Results: patent publication US20100129434A1, “COMPOSITIONS AND METHODS FOR THE TREATMENT OF MUCORMYCOSIS AND OTHER FUNGAL DISEASES” (priority 2006, published 2010)
Values after ≈ are worked out from the molar mass of the structure shown. Where two headings read alike, the source gives them in different places.

What was measured:
[1] = cited from earlier work
[2] = test system: R. oryzae; experiment: Deferasirox susceptibility testing (MIC/MFC), R. oryzae isolates; type: cell-based, Rhizopus oryzae; details: for MFC / MIC: Rhizopus arrhizus; for MFC: read-out: MFC; for MIC: read-out: MIC
Procedure: Minimum inhibitory concentration (MIC) and minimum fungicidal concentration (MFC) were determined for deferasirox by the method of Espinel-Ingroff using R. oryzae spores starved for iron (Espinel-Ingroff, (2001), supra). Cidality was defined as a <4-fold difference between MIC and MFC.
We next determined the deferasirox susceptibilities of multiple clinical isolates of Mucorales (Table 3). The MIC9OS of deferasirox against Mucor, non-oryzae Rhizopus spp., and R. oryzae were 3.12 to 6.25 μg/ml. MFCs were similar to MICs, and deferasirox was cidal for 28/29 (97%) of isolates. Of note, slight growth was seen within the first twelve hours even at extremely high concentrations of deferasirox. […] Furthermore, the MICs and MFCs of deferasirox against these isolates were well below clinically achievable peak (˜38 μg/ml) and trough serum levels (˜17 μg/ml) of the drug at steady state when administered at the FDA-approved starting dose (20 mg/kg/d).

[3] = 24 h, R. oryzae pyr17 pyrG−/−, 24 h
[4] = 24 h, R. orzae type II 10206, 24 h

O=C(O)c1ccc(-n2nc(-c3ccccc3O)nc2-c2ccccc2O)cc1 [Deferasirox, 4-[3,5-Bis(2-hydroxyphenyl)-1H-1,2,4-triazol-1-yl]-benzoic acid]
toxicity ([1]; iron-overloaded marmosets, doses up to 400 mg/kg/d): virtually no toxicity
toxicity ([1]; non-iron overloaded marmosets, 39 weeks, up to 40 mg/kg/d): no toxicities
tolerability ([1]; non-iron overloaded marmosets, subacute treatment (4 weeks), up to 65 mg/kg/d): well tolerated with no adverse effects
toxicity ([1]; non-iron-overloaded marmosets, chronic administration, 80 mg/kg): severe toxicity
Fungicidal? ([2]; R. oryzae 99-133, 24 h): Y (Cidal = MFC/MIC ≦ 4)
Fungicidal? ([2]; R. oryzae 99-133, 48 h): Y (Cidal = MFC/MIC ≦ 4)
Fungicidal? ([2]; R. oryzae 99-880, 24 h): Y (Cidal = MFC/MIC ≦ 4)
Fungicidal? ([2]; R. oryzae 99-880, 48 h): Y (Cidal = MFC/MIC ≦ 4)
Fungicidal? ([2]; R. oryzae 99-892, 24 h): Y (Cidal = MFC/MIC ≦ 4)
Fungicidal? ([2]; R. oryzae 99-892, 48 h): Y (Cidal = MFC/MIC ≦ 4)
Fungicidal? ([2]; R. oryzae 729-02, 24 h): Y (Cidal = MFC/MIC ≦ 4)
Fungicidal? ([2]; R. oryzae 729-02, 48 h): Y (Cidal = MFC/MIC ≦ 4)
Fungicidal? ([2]; R. oryzae HUMC 02, 24 h): Y (Cidal = MFC/MIC ≦ 4)
Fungicidal? ([2]; R. oryzae HUMC 02, 48 h): Y (Cidal = MFC/MIC ≦ 4)
Fungicidal? ([2]; R. oryzae MIC90/MFC90, 24 h): Y (Cidal = MFC/MIC ≦ 4)
MFC90 ([2]; R. oryzae MIC90/MFC90, 24 h): 12.5 µg/mL (≈ 33.5 µM)
Fungicidal? ([2]; R. oryzae MIC90/MFC90, 48 h): Y (Cidal = MFC/MIC ≦ 4)
MFC90 ([2]; R. oryzae MIC90/MFC90, 48 h): 6.25 µg/mL (≈ 16.7 µM)
Fungicidal? ([2]; R. oryzae pyr17 pyrG−/−, 24 h): Y (Cidal = MFC/MIC ≦ 4)
Fungicidal? ([2]; R. oryzae pyr17 pyrG−/−, 48 h): Y (Cidal = MFC/MIC ≦ 4)
Fungicidal? ([2]; R. oryzae type 1 NRRL13440, 24 h): N (Cidal = MFC/MIC ≦ 4)
Fungicidal? ([2]; R. oryzae type 1 NRRL13440, 48 h): N (Cidal = MFC/MIC ≦ 4)
Fungicidal? ([2]; R. oryzae type I NRRL 6059, 24 h): Y (Cidal = MFC/MIC ≦ 4)
Fungicidal? ([2]; R. oryzae type I NRRL 6059, 48 h): Y (Cidal = MFC/MIC ≦ 4)
Fungicidal? ([2]; R. oryzae type I NRRL 10206, 24 h): Y (Cidal = MFC/MIC ≦ 4)
Fungicidal? ([2]; R. oryzae type I NRRL 10206, 48 h): Y (Cidal = MFC/MIC ≦ 4)
Fungicidal? ([2]; R. oryzae type I NRRL11823, 24 h): Y (Cidal = MFC/MIC ≦ 4)
Fungicidal? ([2]; R. oryzae type I NRRL11823, 48 h): Y (Cidal = MFC/MIC ≦ 4)
Fungicidal? ([2]; R. oryzae type I NRRL13142, 24 h): Y (Cidal = MFC/MIC ≦ 4)
Fungicidal? ([2]; R. oryzae type I NRRL13142, 48 h): Y (Cidal = MFC/MIC ≦ 4)
Fungicidal? ([2]; R. oryzae type I NRRL13533, 24 h): Y (Cidal = MFC/MIC ≦ 4)
Fungicidal? ([2]; R. oryzae type I NRRL13533, 48 h): Y (Cidal = MFC/MIC ≦ 4)
Fungicidal? ([2]; R. oryzae type I NRRL 21251, 24 h): Y (Cidal = MFC/MIC ≦ 4)
Fungicidal? ([2]; R. oryzae type I NRRL 21251, 48 h): Y (Cidal = MFC/MIC ≦ 4)
Fungicidal? ([2]; R. oryzae type I NRRL21396, 24 h): Y (Cidal = MFC/MIC ≦ 4)
Fungicidal? ([2]; R. oryzae type I NRRL21396, 48 h): Y (Cidal = MFC/MIC ≦ 4)
Fungicidal? ([2]; R. oryzae type I NRRL21409, 24 h): Y (Cidal = MFC/MIC ≦ 4)
Fungicidal? ([2]; R. oryzae type I NRRL21409, 48 h): Y (Cidal = MFC/MIC ≦ 4)
Fungicidal? ([2]; R. oryzae type II NRRL 18148, 24 h): Y (Cidal = MFC/MIC ≦ 4)
Fungicidal? ([2]; R. oryzae type II NRRL 18148, 48 h): Y (Cidal = MFC/MIC ≦ 4)
Fungicidal? ([2]; R. oryzae type II NRRL 21446, 24 h): Y (Cidal = MFC/MIC ≦ 4)
Fungicidal? ([2]; R. oryzae type II NRRL 21446, 48 h): Y (Cidal = MFC/MIC ≦ 4)
Fungicidal? ([2]; R. oryzae type II NRRL 21447, 24 h): Y (Cidal = MFC/MIC ≦ 4)
Fungicidal? ([2]; R. oryzae type II NRRL 21447, 48 h): Y (Cidal = MFC/MIC ≦ 4)
Fungicidal? ([2]; R. oryzae type II NRRL 21477, 24 h): Y (Cidal = MFC/MIC ≦ 4)
Fungicidal? ([2]; R. oryzae type II NRRL 21477, 48 h): Y (Cidal = MFC/MIC ≦ 4)
Fungicidal? ([2]; R. oryzae type II NRRL 21628, 24 h): Y (Cidal = MFC/MIC ≦ 4)
Fungicidal? ([2]; R. oryzae type II NRRL 21628, 48 h): Y (Cidal = MFC/MIC ≦ 4)
Fungicidal? ([2]; R. oryzae type II NRRL 21789, 24 h): Y (Cidal = MFC/MIC ≦ 4)
Fungicidal? ([2]; R. oryzae type II NRRL 21789, 48 h): Y (Cidal = MFC/MIC ≦ 4)
Fungicidal? ([2]; R. orzae type II 10206, 24 h): Y (Cidal = MFC/MIC ≦ 4)
Fungicidal? ([2]; R. orzae type II 10206, 48 h): Y (Cidal = MFC/MIC ≦ 4)
MFC ([2]; 24 h, R. oryzae 99-133, 24 h): 6.25 µg/mL (≈ 16.7 µM)
MIC ([2]; 24 h, R. oryzae 99-133, 24 h): 6.25 µg/mL (≈ 16.7 µM)
MFC ([2]; 24 h, R. oryzae 99-880, 24 h): 3.12 µg/mL (≈ 8.36 µM)
MIC ([2]; 24 h, R. oryzae 99-880, 24 h): 3.12 µg/mL (≈ 8.36 µM)
MFC ([2]; 24 h, R. oryzae 99-892, 24 h): 1.56 µg/mL (≈ 4.18 µM)
MIC ([2]; 24 h, R. oryzae 99-892, 24 h): 1.56 µg/mL (≈ 4.18 µM)
MFC ([2]; 24 h, R. oryzae 729-02, 24 h): 12.5 µg/mL (≈ 33.5 µM)
MIC ([2]; 24 h, R. oryzae 729-02, 24 h): 12.5 µg/mL (≈ 33.5 µM)
MFC ([2]; 24 h, R. oryzae HUMC 02, 24 h): 12.5 µg/mL (≈ 33.5 µM)
MIC ([2]; 24 h, R. oryzae HUMC 02, 24 h): 12.5 µg/mL (≈ 33.5 µM)
MFC [2, 3]: 0.78 µg/mL (≈ 2.09 µM)
MIC [2, 3]: 0.78 µg/mL (≈ 2.09 µM)
MFC [2, 4]: 3.12 µg/mL (≈ 8.36 µM)
MIC [2, 4]: 3.12 µg/mL (≈ 8.36 µM)
MFC ([2]; 48 h, R. oryzae 99-133, 48 h): 6.25 µg/mL (≈ 16.7 µM)
MIC ([2]; 48 h, R. oryzae 99-133, 48 h): 1.56 µg/mL (≈ 4.18 µM)
MFC ([2]; 48 h, R. oryzae 99-880, 48 h): 3.12 µg/mL (≈ 8.36 µM)
MIC ([2]; 48 h, R. oryzae 99-880, 48 h): 3.12 µg/mL (≈ 8.36 µM)
